Data taken from patent US20100267561A1, “HERBICIDAL PYRIDAZINONE DERIVATIVES” (priority 2007, published 2010).
Read-outs that look alike come from different tables or passages of the source.

Assays:
Experiment in all cases: Test B pre-/postemergence plant response
Type in all cases: in vivo
[1] = system: goosegrass (Eleusine indica); conditions: Eleusine indica, read-out: Plant response rating, Goosegrass; for pest or weed control at 31 g/ha: 31 g ai/ha, 100 complete control; for pest or weed control at 62 g/ha: 62 g ai/ha; for pest or weed control at 62 g/ha / pest or weed control at 125 g/ha / pest or weed control at 250 g/ha: scale 0 to 100; for pest or weed control at 125 g/ha: 125 g ai/ha; for pest or weed control at 250 g/ha: 250 g ai/ha
Summary of the method: (§1)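 Preemergence and postemergence (plants 2-18 cm, 1- to 4-leaf stage) applications used test chemicals in a non-phytotoxic solvent with surfactant. Plants were held in a greenhouse 13 to 15 days, then rated visually against controls on a 0-100 scale (0 no effect, 100 complete control).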

[2] = system: velvetleaf (Abutilon theophrasti); conditions: Abutilon theophrasti, read-out: Plant response rating, Velvetleaf; for pest or weed control at 31 g/ha: 31 g ai/ha, 100 complete control; for pest or weed control at 62 g/ha: 62 g ai/ha; for pest or weed control at 62 g/ha / pest or weed control at 125 g/ha / pest or weed control at 250 g/ha: scale 0 to 100; for pest or weed control at 125 g/ha: 125 g ai/ha; for pest or weed control at 250 g/ha: 250 g ai/ha
Summary of the method: as §1

[3] = system: large crabgrass (Digitaria sanguinalis); conditions: Digitaria sanguinalis, read-out: Plant response rating, Crabgrass, Large; for pest or weed control at 31 g/ha: 31 g ai/ha, 100 complete control; for pest or weed control at 62 g/ha: 62 g ai/ha; for pest or weed control at 62 g/ha / pest or weed control at 125 g/ha / pest or weed control at 250 g/ha: scale 0 to 100; for pest or weed control at 125 g/ha: 125 g ai/ha; for pest or weed control at 250 g/ha: 250 g ai/ha
Summary of the method: as §1

[4] = system: green foxtail (Setaria viridis); conditions: Setaria viridis, read-out: Plant response rating, Foxtail, Green; for pest or weed control at 31 g/ha: 31 g ai/ha, 100 complete control; for pest or weed control at 62 g/ha: 62 g ai/ha; for pest or weed control at 62 g/ha / pest or weed control at 125 g/ha / pest or weed control at 250 g/ha: scale 0 to 100; for pest or weed control at 125 g/ha: 125 g ai/ha; for pest or weed control at 250 g/ha: 250 g ai/ha
Summary of the method: as §1

[5] = system: common ragweed (Ambrosia elation); conditions: Ambrosia, read-out: Plant response rating, Ragweed; for pest or weed control at 31 g/ha: 31 g ai/ha, 100 complete control; for pest or weed control at 62 g/ha: 62 g ai/ha; for pest or weed control at 62 g/ha / pest or weed control at 125 g/ha / pest or weed control at 250 g/ha: scale 0 to 100; for pest or weed control at 125 g/ha: 125 g ai/ha; for pest or weed control at 250 g/ha: 250 g ai/ha
Summary of the method: as §1

[6] = system: eastern black (E.B.) nightshade (Solanum ptycanthum); conditions: Solanum, pre-emergence, Preemergence, read-out: Plant response rating, Nightshade, E. B.
Summary of the method: as §1

wild oat (Avena fatua) = conditions: Avena fatua, post-emergence, Postemergence, read-out: Plant response rating, Oat, Wild
Summary of the method: as §1

[7] = post-emergence, Postemergence, scale 0 to 100, 0 no effect
[8] = pre-emergence, Preemergence, 0 to 100 scale, 0 no effect

Cc1cc(-c2ccc(C(F)(F)F)cc2)nn1-c1c(O)cnn(C)c1=O [Compound 1, 5-hydroxy-2-methyl-4-[5-methyl-3-[4-(trifluoromethyl)phenyl]-1H-pyrazol-1-yl]-3(2H)-pyridazinone]
0%: pest or weed control at 31 g/ha [2, 7] | pest or weed control at 62 g/ha ([2]; post-emergence, Postemergence) | pest or weed control at 125 g/ha ([2]; post-emergence, Postemergence) | pest or weed control at 31 g/ha [2, 8] | pest or weed control at 62 g/ha ([2]; pre-emergence, Preemergence) | pest or weed control at 125 g/ha ([2]; pre-emergence, Preemergence) | pest or weed control at 31 g/ha [5, 7] | pest or weed control at 62 g/ha ([5]; post-emergence, Postemergence) | pest or weed control at 31 g/ha [5, 8] | pest or weed control at 62 g/ha ([5]; pre-emergence, Preemergence) | pest or weed control at 125 g/ha ([5]; pre-emergence, Preemergence) | pest or weed control at 250 g/ha ([5]; pre-emergence, Preemergence) | pest or weed control at 31 g/ha ([6]; 31 g ai/ha, 0 to 100 scale, 0 no effect, 100 complete control) | pest or weed control at 62 g/ha ([6]; 62 g ai/ha, scale 0 to 100) | pest or weed control at 125 g/ha ([6]; 125 g ai/ha, scale 0 to 100) | pest or weed control at 250 g/ha ([6]; 250 g ai/ha, scale 0 to 100)
55%: pest or weed control at 250 g/ha ([5]; post-emergence, Postemergence)
30%: pest or weed control at 31 g/ha [1, 7] | pest or weed control at 62 g/ha ([1]; post-emergence, Postemergence)
50%: pest or weed control at 125 g/ha ([1]; post-emergence, Postemergence) | pest or weed control at 31 g/ha [1, 8] | pest or weed control at 62 g/ha ([1]; pre-emergence, Preemergence) | pest or weed control at 250 g/ha ([2]; post-emergence, Postemergence) | pest or weed control at 250 g/ha ([2]; pre-emergence, Preemergence) | pest or weed control at 125 g/ha ([5]; post-emergence, Postemergence)
80%: pest or weed control at 31 g/ha [3, 7]
98%: pest or weed control at 31 g/ha [3, 8]
85%: pest or weed control at 250 g/ha ([1]; post-emergence, Postemergence)
100%: pest or weed control at 125 g/ha ([1]; pre-emergence, Preemergence) | pest or weed control at 250 g/ha ([1]; pre-emergence, Preemergence) | pest or weed control at 125 g/ha ([3]; post-emergence, Postemergence) | pest or weed control at 250 g/ha ([3]; post-emergence, Postemergence) | pest or weed control at 62 g/ha ([3]; pre-emergence, Preemergence) | pest or weed control at 125 g/ha ([3]; pre-emergence, Preemergence) | pest or weed control at 250 g/ha ([3]; pre-emergence, Preemergence) | pest or weed control at 62 g/ha ([4]; post-emergence, Postemergence) | pest or weed control at 125 g/ha ([4]; post-emergence, Postemergence) | pest or weed control at 250 g/ha ([4]; post-emergence, Postemergence) | pest or weed control at 31 g/ha [4, 8] | pest or weed control at 62 g/ha ([4]; pre-emergence, Preemergence) | pest or weed control at 125 g/ha ([4]; pre-emergence, Preemergence) | pest or weed control at 250 g/ha ([4]; pre-emergence, Preemergence) | pest or weed control at 62 g/ha (wild oat (Avena fatua); 62 g ai/ha, scale 0 to 100) | pest or weed control at 125 g/ha (wild oat (Avena fatua); 125 g ai/ha, scale 0 to 100)
90%: pest or weed control at 62 g/ha ([3]; post-emergence, Postemergence) | pest or weed control at 31 g/ha (wild oat (Avena fatua); 31 g ai/ha, scale 0 to 100, 0 no effect, 100 complete control)
95%: pest or weed control at 31 g/ha [4, 7]
